Assay results taken from PubChem BioAssay AID206 (DTP/NCI, 2004).
Where “and” joins values, the source holds several entries; their conditions need not be identical. Identical values can stand only once. Inconclusive results are not listed.

Tested on: nude mice, HT29 intrarenal xenograft, tumor weight T/C
Experiment: NCI In Vivo Anticancer Drug Screen. Data for tumor model HT29;CX-1 Human Adenocarcinoma (MER+) (intrarenal inoculation) in NU/NU Swiss (nude) mice
Conditions: endpoint: mean tumor weight change, higher = larger tumour
Summary of the method: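 Readout: treated/vehicle-control ratio of the measured endpoint (tumor size or survival) in transplanted-tumor mice.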

[1] = dose: 600.0 mg/kg/injection, schedule: Q04DX004 (sc), vehicle: saline with Tween-80
[2] = dose: 600.0 mg/kg/injection, schedule: Q04DX004 (sc), vehicle: Klucel (hydroxypropylcellulose) (HPC)
[3] = dose: 3.0 mg/kg/injection, schedule: Q04DX004 (sc), vehicle: Klucel (hydroxypropylcellulose) (HPC)
[4] = dose: 100.0 mg/kg/injection, schedule: Q01DX010 (sc), vehicle: saline with Tween-80
[5] = dose: 200.0 mg/kg/injection, schedule: Q01DX010 (sc), vehicle: saline with Tween-80
[6] = dose: 400.0 mg/kg/injection, schedule: Q01DX010 (sc), vehicle: saline with Tween-80
[7] = dose: 800.0 mg/kg/injection, schedule: Q01DX010 (sc), vehicle: saline with Tween-80
[8] = dose: 150.0 mg/kg/injection, schedule: Q04DX004 (sc), vehicle: saline with Tween-80
[9] = dose: 300.0 mg/kg/injection, schedule: Q04DX004 (sc), vehicle: saline with Tween-80
[10] = dose: 1200.0 mg/kg/injection, schedule: Q04DX004 (sc), vehicle: saline with Tween-80
[11] = dose: 50.0 mg/kg/injection, schedule: Q04DX004 (sc), vehicle: saline with Tween-80
[12] = dose: 100.0 mg/kg/injection, schedule: Q04DX004 (sc), vehicle: saline with Tween-80
[13] = dose: 200.0 mg/kg/injection, schedule: Q04DX004 (sc), vehicle: saline with Tween-80
[14] = dose: 400.0 mg/kg/injection, schedule: Q04DX004 (sc), vehicle: saline with Tween-80

`Cc1cc(O)c(N=Nc2ccc(C(=O)O)cc2)cc1C` was tested, and the T/C [1] was 107 % of control and the T/C (dose: 2400.0 mg/kg/injection, schedule: Q04DX004 (sc), vehicle: saline with Tween-80) was 154 % of control.

For `Cc1ccc(S(=O)(=O)NC(=O)C2C(=O)CC3(CCCCC3)CC2=O)cc1`, the T/C (dose: 150.0 mg/kg/injection, schedule: Q04DX004 (sc), vehicle: Klucel (hydroxypropylcellulose) (HPC)) was 80 % of control, the T/C (dose: 300.0 mg/kg/injection, schedule: Q04DX004 (sc), vehicle: Klucel (hydroxypropylcellulose) (HPC)) was 84 % of control and the T/C [2] was 58 % of control.

`CCCCCCCCNc1cc2c3c(c1)CCCN3CCC2` was tested, and the T/C [3] was 69 % of control, the T/C (dose: 6.0 mg/kg/injection, schedule: Q04DX004 (sc), vehicle: Klucel (hydroxypropylcellulose) (HPC)) was 103 % of control and the T/C (dose: 12.0 mg/kg/injection, schedule: Q04DX004 (sc), vehicle: Klucel (hydroxypropylcellulose) (HPC)) was 73 % of control.

With `CN(C)C=O` the T/C (dose: 400.0 mg/kg/injection, schedule: Q01DX010 (sc), vehicle: saline) was 186 % of control and the T/C (dose: 3200.0 mg/kg/injection, schedule: Q01DX010 (sc), vehicle: saline) was 48 % of control and 49 % of control.

In the case of `CCO/C=C1\SC(=S)N(c2ccccc2C)C1=O`, the T/C [4] is reported as 80 % of control, the T/C [5] is reported as 102 % of control and the T/C [6] is reported as 177 % of control. The T/C [7] was 107 % of control.

In the case of `O=c1[nH]c(=O)n(C2CC(O)C(CO)O2)cc1Br` (stereo not drawn), the T/C [2] is reported as 157 % of control, the T/C (dose: 1200.0 mg/kg/injection, schedule: Q04DX004 (sc), vehicle: Klucel (hydroxypropylcellulose) (HPC)) is reported as 91 % of control and the T/C (dose: 2400.0 mg/kg/injection, schedule: Q04DX004 (sc), vehicle: Klucel (hydroxypropylcellulose) (HPC)) is reported as 59 % of control.

For `CCOC(=O)c1[nH]c2cccc3c2c1CC(Br)C3=O` (stereo not drawn), the T/C [8] was 81 % of control, the T/C [9] was 81 % of control and the T/C [1] was 71 % of control. For the same molecule, the T/C [10] was 71 % of control.

`Cc1cc(NCCCCCCCNc2cc(C)nc3cc(N)ccc23)c2ccc(N)cc2n1` was tested, and the T/C (dose: 12.5 mg/kg/injection, schedule: Q04DX004 (sc), vehicle: saline with Tween-80) was 32 % of control, the T/C (dose: 25.0 mg/kg/injection, schedule: Q04DX004 (sc), vehicle: saline with Tween-80) was 56 % of control and the T/C [11] was 51 % of control.

In the case of `COc1ccc(OC)c(/C=C/c2ccnc3ccccc23)c1`, the T/C [4] is reported as 92 % of control, the T/C [5] is reported as 61 % of control and the T/C [6] is reported as 91 % of control. The T/C [7] was 113 % of control.

In the case of `COC1=C(OC)C(=O)C(C/C=C(\C)CC/C=C(\C)CC/C=C(\C)CC/C=C(\C)CC/C=C(\C)CC/C=C(\C)CC/C=C(\C)CC/C=C(\C)CC/C=C(\C)CCC=C(C)C)=C(C)C1=O`, the T/C [4] is reported as 113 % of control, the T/C [5] is reported as 98 % of control and the T/C [6] is reported as 105 % of control. The T/C [7] was 46 % of control.

For `ClCC[N+]12CC[N+](CCCl)(CC1)C2`, the T/C (dose: 50.0 mg/kg/injection, schedule: Q01DX010 (sc), vehicle: saline with Tween-80) was 37 % of control, the T/C (dose: 75.0 mg/kg/injection, schedule: Q04DX004 (sc), vehicle: water) was 101 % of control and the T/C [4] was 90 % of control. The T/C (dose: 150.0 mg/kg/injection, schedule: Q04DX004 (sc), vehicle: water) was 107 % of control, the T/C [5] was 96 % of control and the T/C (dose: 300.0 mg/kg/injection, schedule: Q04DX004 (sc), vehicle: water) was 98 % of control and 101 % of control. The T/C (dose: 600.0 mg/kg/injection, schedule: Q04DX004 (sc), vehicle: water) was 43 % of control.

`C/C=C(\C)c1cc(=O)c2c(C)cc3c(c2o1)C(=O)c1c(O)c(C2CC(C)(N(C)C)C(OC(C)=O)C(C)O2)cc(C2CC(N(C)C)C(O)C(C)O2)c1C3=O` (stereo not drawn) was tested, and the T/C (dose: 2.5 mg/kg/injection, schedule: Q04DX004 (sc), vehicle: saline) was 102 % of control, the T/C (dose: 5.0 mg/kg/injection, schedule: Q04DX004 (sc), vehicle: saline) was 93 % of control and the T/C (dose: 20.0 mg/kg/injection, schedule: Q04DX004 (sc), vehicle: saline) was 37 % of control and 39 % of control.

With `Nc1ccc(Cl)cc1N` the T/C (dose: 450.0 mg/kg/injection, schedule: Q04DX004 (sc), vehicle: saline with Tween-80) was 41 % of control, the T/C (dose: 900.0 mg/kg/injection, schedule: Q04DX004 (sc), vehicle: saline with Tween-80) was 78 % of control and the T/C (dose: 1800.0 mg/kg/injection, schedule: Q04DX004 (sc), vehicle: saline with Tween-80) was 30 % of control.

In the case of `N#CN=[N+]([O-])c1ccc(C(=O)O)cc1`, the T/C (dose: 45.0 mg/kg/injection, schedule: Q04DX004 (sc), vehicle: Klucel (hydroxypropylcellulose) (HPC)) is reported as 60 % of control.

In the case of `C[n+]1c(/C=C\C=C\N2CCCCC2)sc2ccccc21`, the T/C (dose: 1.5 mg/kg/injection, schedule: Q04DX004 (sc), vehicle: Klucel (hydroxypropylcellulose) (HPC)) is reported as 84 % of control and the T/C [3] is reported as 41 % of control.

With `O=C(CO)c1ccc([N+](=O)[O-])cc1` the T/C [4] was 63 % of control, the T/C [5] was 70 % of control and the T/C [6] was 122 % of control. For the same molecule, the T/C [7] was 75 % of control.

For `CC(=O)O[C@@H]1CO[C@H]2O[C@H]3[C@@H](C(C=O)=C[C@H](O)[C@@H]4C5=C(C(C)C)CC[C@]5(C)CC[C@@]34C)[C@@]2(O)C1=O`, the T/C (dose: 12.5 mg/kg/injection, schedule: Q04DX004 (sc), vehicle: Klucel (hydroxypropylcellulose) (HPC)) was 110 % of control, the T/C (dose: 25.0 mg/kg/injection, schedule: Q04DX004 (sc), vehicle: Klucel (hydroxypropylcellulose) (HPC)) was 83 % of control and the T/C (dose: 50.0 mg/kg/injection, schedule: Q04DX004 (sc), vehicle: Klucel (hydroxypropylcellulose) (HPC)) was 76 % of control. For the same molecule, the T/C (dose: 100.0 mg/kg/injection, schedule: Q04DX004 (sc), vehicle: Klucel (hydroxypropylcellulose) (HPC)) was 58 % of control.

For `NC(=S)N/N=C/c1ccc(OC(=O)COc2ccccc2)cn1`, the T/C [8] was 102 % of control, the T/C [9] was 94 % of control and the T/C [1] was 155 % of control. For the same molecule, the T/C [10] was 38 % of control.

`COc1cc2c[n+](C)c3c4cc5c(cc4ccc3c2cc1OC)OCO5` was tested, and the T/C [11] was 67 % of control, the T/C [12] was 48 % of control and the T/C [13] was 79 % of control. For the same molecule, the T/C [14] was 60 % of control.

For `Cc1cn(C2CC(F)C(CO)O2)c(=O)[nH]c1=O` (stereo not drawn), the T/C (dose: 100.0 mg/kg/injection, schedule: Q04DX004 (sc), vehicle: suspension in saline) was 65 % of control, the T/C (dose: 200.0 mg/kg/injection, schedule: Q04DX004 (sc), vehicle: suspension in saline) was 60 % of control and the T/C (dose: 400.0 mg/kg/injection, schedule: Q04DX004 (sc), vehicle: suspension in saline) was 117 % of control. The T/C (dose: 800.0 mg/kg/injection, schedule: Q04DX004 (sc), vehicle: suspension in saline) was 74 % of control.

In the case of `C=C(NC(=O)C(=C)NC(=O)c1csc(C2=NC3c4csc(n4)C4NC(=O)c5csc(n5)C(C(C)(O)C(C)O)NC(=O)C5CSC(=N5)/C(=C/C)NC(=O)C(C(C)O)NC(=O)c5csc(n5)C3(CC2)NC(=O)C(C)NC(=O)C(=C)NC(=O)C(=C)NC(=O)C(C(C)C)NC2C=Cc3c(C(C)O)cc(nc3C2O)C(=O)OC4C)n1)C(N)=O` (stereo not drawn), the T/C (dose: 125.0 mg/kg/injection, schedule: Q04DX004 (sc), vehicle: suspension in saline) is reported as 789 % of control, the T/C (dose: 250.0 mg/kg/injection, schedule: Q04DX004 (sc), vehicle: suspension in saline) is reported as 419 % of control and the T/C (dose: 500.0 mg/kg/injection, schedule: Q04DX004 (sc), vehicle: saline) is reported as 59 % of control. For the same molecule, the T/C (dose: 750.0 mg/kg/injection, schedule: Q04DX004 (sc), vehicle: saline) was 97 % of control, the T/C (dose: 750.0 mg/kg/injection, schedule: Q04DX004 (sc), vehicle: suspension in saline) was 73 % of control and the T/C (dose: 1000.0 mg/kg/injection, schedule: Q04DX004 (sc), vehicle: saline) was 65 % of control. For the same molecule, the T/C (dose: 1250.0 mg/kg/injection, schedule: Q04DX004 (sc), vehicle: saline) was 91 % of control and the T/C (dose: 1250.0 mg/kg/injection, schedule: Q04DX004 (sc), vehicle: suspension in saline) was 82 % of control.

For `CC1=C[S+](c2ccccc2)c2cccc3cc4ccccc4c1c23` (stereo not drawn), the T/C (dose: 8.0 mg/kg/injection, schedule: Q04DX004 (sc), vehicle: saline with Tween-80) was 45 % of control and the T/C (dose: 16.0 mg/kg/injection, schedule: Q04DX004 (sc), vehicle: saline with Tween-80) was 66 % of control.

In the case of `CCN(CC)CCC(=O)c1ccccc1`, the T/C [11] is reported as 65 % of control, the T/C [12] is reported as 60 % of control and the T/C [13] is reported as 50 % of control. The T/C [14] was 77 % of control.

With `C=C1N(C)c2ccccc2C1(C)C` the T/C [11] was 66 % of control, the T/C [12] was 73 % of control and the T/C [13] was 94 % of control.

For `NNC(=S)N/N=C/c1ccccn1`, the T/C (dose: 15.0 mg/kg/injection, schedule: Q04DX004 (sc), vehicle: saline with Tween-80) was 100 % of control, the T/C (dose: 30.0 mg/kg/injection, schedule: Q04DX004 (sc), vehicle: saline with Tween-80) was 76 % of control and the T/C (dose: 60.0 mg/kg/injection, schedule: Q04DX004 (sc), vehicle: saline with Tween-80) was 86 % of control.
